Measured values as given in US20020137929A1, “1 - (3-heterocyclylphenyl) isothiourea, -isourea, -guanidine and -amidine herbicidal agents” (Intellectual Property Department, BASF Aktiengesellschaft, priority 1998, published 2002).

Key:
CYPSE (Flatsedge) [1] = experiment: Postemergence weed control under flooded paddy conditions; assay type: in vivo, Cyperus serotinus; details: postemergence weeds, rated 3 to 4 weeks after treatment
Method in brief: (§1)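 Herbicidal effect is judged by eye on a 0–9 scale versus control, 3–4 weeks after dosing. Dosing is into flood water kept 1.5–3 cm over the soil, at about 0.0313–0.500 kg/ha in aqueous/acetone 50/50 v/v, on 3–5 cm weeds and 1.5–2.5-leaf rice seedlings.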

CYPSE (Flatsedge) [2] = experiment: Preemergence weed control under flooded paddy conditions; assay type: in vivo, Cyperus serotinus; details: rated 3-4 weeks after treatment
Method in brief: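 Silt loam, seeds in top 0.5 cm; flood held 1.5-3 cm; test cpd as acetone/water 50/50 into flood water, ~0.0313-0.500 kg/ha a.i.; greenhouse 3-4 wk; visual 0-9 score vs control.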

[3] = system: TRZAWR (Wheat, Winter, cv Riband); experiment: Preemergence herbicidal evaluation; assay type: in vivo, Triticum aestivum; details: preemergence, rated 4-5 weeks after treatment, 0-9 scale
Method in brief: (§2)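 Each species is sown separately in potting soil over roughly an inch of soil before any emergence. The soil surface then receives an aqueous acetone spray delivering about 0.0156 to 0.500 kg/ha of compound. After four to five weeks, injury is scored from 0 to 9 relative to a control.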

ZEAMX (Corn, Field) [4] = experiment: Postemergence herbicidal evaluation; assay type: in vivo, Zea mays; details: postemergence
Method in brief: (§3)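 Herbicidal effect was judged by eye on a 0–9 scale covering stand, vigor, deformity, size and chlorosis, compared with controls, four to five weeks after seedlings about two weeks old were sprayed (40 psi, ~0.0156–0.500 kg/ha).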

[5] = system: ECHORC (Watergrass (Calif.)); experiment: Postemergence weed control under flooded paddy conditions; assay type: in vivo, Echinochloa oryzoides; details: postemergence weeds, rated 3 to 4 weeks after treatment
Method in brief: as §1

ZEAMX (Corn, Field) [6] = experiment: Preemergence herbicidal evaluation; assay type: in vivo, Zea mays; details: preemergence, rated 4-5 weeks after treatment, 0-9 scale
Method in brief: as §2

[7] = system: ECHORC (Watergrass (Calif.)); experiment: Preemergence weed control under flooded paddy conditions; assay type: in vivo, Echinochloa oryzoides; details: rated 3-4 weeks after treatment
Method in brief: (§4)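 Visual injury scored 0-9 against control three to four weeks post-treatment, greenhouse-grown. Application: acetone/water (50/50) solutions dosed directly into flood water (1.5-3 cm over silt loam, planted top 0.5 cm), roughly 0.0313 to 0.500 kg/ha active ingredient.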

[8] = system: SAGPY (Arrowhead (Pygmaea)); experiment: Postemergence weed control under flooded paddy conditions; assay type: in vivo, Sagittaria pygmaea; details: postemergence weeds, rated 3 to 4 weeks after treatment
Method in brief: as §1

CYPIR (Rice Flatsedge) [9] = experiment: Preemergence weed control under flooded paddy conditions; assay type: in vivo, Cyperus iria; details: rated 3-4 weeks after treatment
Method in brief: as §4

SETVI (Foxtail, Green) [10] = experiment: Preemergence herbicidal evaluation; assay type: in vivo, Setaria viridis; details: preemergence, rated 4-5 weeks after treatment, 0-9 scale
Method in brief: as §2

ORYSAT (Rice, Tebonnet) = experiment: Postemergence herbicidal evaluation; assay type: in vivo, Oryza sativa, (L.) Tebonnet; details: postemergence
Method in brief: as §3

CYPIR (Rice Flatsedge) [11] = experiment: Postemergence weed control under flooded paddy conditions; assay type: in vivo, Cyperus iria; details: postemergence weeds, rated 3 to 4 weeks after treatment
Method in brief: as §1

ECHCG (Barnyardgrass) = experiment: Preemergence herbicidal evaluation; assay type: in vivo, Echinochloa crus-galli; details: preemergence, rated 4-5 weeks after treatment, 0-9 scale
Method in brief: as §2

SETVI (Foxtail, Green) [12] = experiment: Postemergence herbicidal evaluation; assay type: in vivo, Setaria viridis; details: postemergence
Method in brief: as §3

Q: `C=CCN1C(=O)C(CC(=O)NOC)SC1=Nc1cc(-n2c(=O)cc(C(F)(F)F)n(C)c2=O)c(F)cc1Cl` (stereo not shown) [Compound 85] was tested. Which “Herbicidal rating CYPSE” value (CYPSE (Flatsedge) [1]; Rate 0.0313 kg/ha) did it give?
A: 0.0

Q: What about the “Herbicidal rating CYPSE” value (CYPSE (Flatsedge) [1]; Rate 0.0625 kg/ha) of the same compound?
A: 2.0

Q: What about the “Herbicidal rating CYPSE” value (CYPSE (Flatsedge) [1]; Rate 0.1250 kg/ha) of the same compound?
A: 2.0

Q: And the “Herbicidal rating CYPSE” value (CYPSE (Flatsedge) [1]; Rate 0.2500 kg/ha)?
A: 9.0

Q: What about the “CYPSE herbicidal effect rating” value (CYPSE (Flatsedge) [2]; 0.0313 kg/ha) of the same compound?
A: 0.0

Q: And the “CYPSE herbicidal effect rating” value (CYPSE (Flatsedge) [2]; 0.0625 kg/ha)?
A: 2.0

Q: What about the “CYPSE herbicidal effect rating” value (CYPSE (Flatsedge) [2]; 0.1250 kg/ha) of the same compound?
A: 2.0

Q: And the “CYPSE herbicidal effect rating” value (CYPSE (Flatsedge) [2]; 0.2500 kg/ha)?
A: 9.0

Q: What about the TRZAWR rating ([3]; 0.0156 kg/ha) of the same compound?
A: 0.0

Q: And the TRZAWR rating ([3]; 0.0313 kg/ha)?
A: 0.0

Q: And the TRZAWR rating ([3]; 0.0625 kg/ha)?
A: 0.0

Q: And the TRZAWR rating ([3]; 0.1250 kg/ha)?
A: 3.0

Q: What about the TRZAWR rating ([3]; 0.2500 kg/ha) of the same compound?
A: 5.0

Q: And the TRZAWR rating ([3]; 0.5000 kg/ha)?
A: 8.0

Q: And the ZEAMX herbicidal rating (ZEAMX (Corn, Field) [4]; rate 0.0156 kg/ha)?
A: 4.0

Q: And the ZEAMX herbicidal rating (ZEAMX (Corn, Field) [4]; rate 0.0313 kg/ha)?
A: 6.5

Q: And the ZEAMX herbicidal rating (ZEAMX (Corn, Field) [4]; rate 0.0625 kg/ha)?
A: 7.5

Q: And the ZEAMX herbicidal rating (ZEAMX (Corn, Field) [4]; rate 0.1250 kg/ha)?
A: 8.5

Q: What about the “Herbicidal rating ECHORC” value ([5]; Rate 0.0313 kg/ha) of the same compound?
A: 4.0

Q: And the “Herbicidal rating ECHORC” value ([5]; Rate 0.0625 kg/ha)?
A: 5.0

Q: What about the “Herbicidal rating ECHORC” value ([5]; Rate 0.1250 kg/ha) of the same compound?
A: 7.0

Q: And the “Herbicidal rating ECHORC” value ([5]; Rate 0.2500 kg/ha)?
A: 9.0

Q: And the ZEAMX rating (ZEAMX (Corn, Field) [6]; 0.0156 kg/ha)?
A: 0.0

Q: And the ZEAMX rating (ZEAMX (Corn, Field) [6]; 0.0313 kg/ha)?
A: 0.0

Q: What about the ZEAMX rating (ZEAMX (Corn, Field) [6]; 0.0625 kg/ha) of the same compound?
A: 0.0

Q: What about the ZEAMX rating (ZEAMX (Corn, Field) [6]; 0.1250 kg/ha) of the same compound?
A: 2.0

Q: What about the ZEAMX rating (ZEAMX (Corn, Field) [6]; 0.2500 kg/ha) of the same compound?
A: 5.0

Q: And the ZEAMX rating (ZEAMX (Corn, Field) [6]; 0.5000 kg/ha)?
A: 9.0

Q: And the “ECHORC herbicidal effect rating” value ([7]; 0.0313 kg/ha)?
A: 4.0

Q: And the “ECHORC herbicidal effect rating” value ([7]; 0.0625 kg/ha)?
A: 5.0

Q: And the “ECHORC herbicidal effect rating” value ([7]; 0.1250 kg/ha)?
A: 7.0

Q: And the “ECHORC herbicidal effect rating” value ([7]; 0.2500 kg/ha)?
A: 9.0

Q: What about the “Herbicidal rating SAGPY” value ([8]; Rate 0.0313 kg/ha) of the same compound?
A: 3.0

Q: What about the “Herbicidal rating SAGPY” value ([8]; Rate 0.0625 kg/ha) of the same compound?
A: 3.0

Q: What about the “Herbicidal rating SAGPY” value ([8]; Rate 0.1250 kg/ha) of the same compound?
A: 9.0

Q: What about the “Herbicidal rating SAGPY” value ([8]; Rate 0.2500 kg/ha) of the same compound?
A: 9.0

Q: What about the “CYPIR herbicidal effect rating” value (CYPIR (Rice Flatsedge) [9]; 0.0313 kg/ha) of the same compound?
A: 3.0

Q: And the “CYPIR herbicidal effect rating” value (CYPIR (Rice Flatsedge) [9]; 0.0625 kg/ha)?
A: 7.0

Q: What about the “CYPIR herbicidal effect rating” value (CYPIR (Rice Flatsedge) [9]; 0.1250 kg/ha) of the same compound?
A: 9.0

Q: And the “CYPIR herbicidal effect rating” value (CYPIR (Rice Flatsedge) [9]; 0.2500 kg/ha)?
A: 9.0

Q: And the SETVI rating (SETVI (Foxtail, Green) [10]; 0.0156 kg/ha)?
A: 0.0

Q: And the SETVI rating (SETVI (Foxtail, Green) [10]; 0.0313 kg/ha)?
A: 0.0

Q: And the SETVI rating (SETVI (Foxtail, Green) [10]; 0.0625 kg/ha)?
A: 0.0

Q: What about the SETVI rating (SETVI (Foxtail, Green) [10]; 0.1250 kg/ha) of the same compound?
A: 0.0

Q: What about the SETVI rating (SETVI (Foxtail, Green) [10]; 0.2500 kg/ha) of the same compound?
A: 9.0

Q: And the SETVI rating (SETVI (Foxtail, Green) [10]; 0.5000 kg/ha)?
A: 9.0

Q: What about the ORYSAT herbicidal rating (ORYSAT (Rice, Tebonnet); rate 0.0156 kg/ha) of the same compound?
A: 1.0

Q: And the ORYSAT herbicidal rating (ORYSAT (Rice, Tebonnet); rate 0.0313 kg/ha)?
A: 1.0

Q: What about the ORYSAT herbicidal rating (ORYSAT (Rice, Tebonnet); rate 0.0625 kg/ha) of the same compound?
A: 1.5

Q: And the ORYSAT herbicidal rating (ORYSAT (Rice, Tebonnet); rate 0.1250 kg/ha)?
A: 2.5

Q: And the “Herbicidal rating CYPIR” value (CYPIR (Rice Flatsedge) [11]; Rate 0.0313 kg/ha)?
A: 3.0

Q: What about the “Herbicidal rating CYPIR” value (CYPIR (Rice Flatsedge) [11]; Rate 0.0625 kg/ha) of the same compound?
A: 7.0

Q: And the “Herbicidal rating CYPIR” value (CYPIR (Rice Flatsedge) [11]; Rate 0.1250 kg/ha)?
A: 9.0

Q: What about the “Herbicidal rating CYPIR” value (CYPIR (Rice Flatsedge) [11]; Rate 0.2500 kg/ha) of the same compound?
A: 9.0

Q: And the ECHCG rating (ECHCG (Barnyardgrass); 0.0156 kg/ha)?
A: 0.0

Q: And the ECHCG rating (ECHCG (Barnyardgrass); 0.0313 kg/ha)?
A: 0.0

Q: What about the ECHCG rating (ECHCG (Barnyardgrass); 0.0625 kg/ha) of the same compound?
A: 0.0

Q: What about the ECHCG rating (ECHCG (Barnyardgrass); 0.1250 kg/ha) of the same compound?
A: 0.0

Q: What about the ECHCG rating (ECHCG (Barnyardgrass); 0.2500 kg/ha) of the same compound?
A: 0.0

Q: And the ECHCG rating (ECHCG (Barnyardgrass); 0.5000 kg/ha)?
A: 4.0

Q: What about the SETVI herbicidal rating (SETVI (Foxtail, Green) [12]; rate 0.0156 kg/ha) of the same compound?
A: 0.0

Q: What about the SETVI herbicidal rating (SETVI (Foxtail, Green) [12]; rate 0.0313 kg/ha) of the same compound?
A: 0.0

Q: What about the SETVI herbicidal rating (SETVI (Foxtail, Green) [12]; rate 0.0625 kg/ha) of the same compound?
A: 9.0

Q: And the SETVI herbicidal rating (SETVI (Foxtail, Green) [12]; rate 0.1250 kg/ha)?
A: 9.0
